The results in this text go back to patent US7750019B2, “Pyrimidine compound having benzyl(pyridylmethyl)amine structure and medicament comprising the same” (Kowa Company, Ltd., priority 2006, dated 2010).

Structures are written as SMILES. Counter-ions that a name gives are not always drawn.

In series [1] the target is T1, CETP (Homo sapiens, UniProt P11597).
T1 construct: The CETP activity in this plasma was measured with Cholesteryl Ester Transfer Protein Activity kit; from tissue; host or cells: human plasma
T1 sequence (P11597 18-493): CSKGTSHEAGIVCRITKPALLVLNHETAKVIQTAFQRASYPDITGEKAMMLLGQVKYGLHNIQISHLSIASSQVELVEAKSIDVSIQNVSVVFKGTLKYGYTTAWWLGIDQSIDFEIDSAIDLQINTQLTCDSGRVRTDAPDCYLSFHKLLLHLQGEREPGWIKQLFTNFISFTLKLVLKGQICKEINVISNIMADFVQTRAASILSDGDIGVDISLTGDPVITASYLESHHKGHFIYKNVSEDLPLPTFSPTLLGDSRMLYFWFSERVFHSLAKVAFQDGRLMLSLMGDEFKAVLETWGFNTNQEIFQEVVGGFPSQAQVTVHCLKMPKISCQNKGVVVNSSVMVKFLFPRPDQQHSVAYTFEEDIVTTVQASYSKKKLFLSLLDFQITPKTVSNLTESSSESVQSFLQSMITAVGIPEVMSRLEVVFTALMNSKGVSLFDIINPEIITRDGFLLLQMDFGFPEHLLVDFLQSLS
Briefly: CETP inhibitory action in human plasma (Roar Biomedical CETP Activity kit, fluorescence). The format is biochemical. Conditions: human plasma incubated with compound at 37° C. for 4 hours; read-out: IC50 (concentration inhibiting the CETP activity by 50%). On the procedure:
A solution obtained by dissolving an exemplary compound or a comparative compound in polyethyleneglycol/N-methyl-2-pyrrolidone (vol/vol=1/1) was added to human plasma, and the mixture was incubated in an incubator at 37° C. for 4 hours. The CETP activity in this plasma was measured with Cholesteryl Ester Transfer Protein Activity kit (Roar Biomedical, catalog No.: RB-CETP). Specifically, to each well of a 96-well plate, 95 μL of a buffer (10 mM Tris, 150 mM NaCl, 2 mM EDTA, pH 7.4), 2 μL of Donor particle and 2 μL of Acceptor particle were added, 1 μL of the human plasma after the incubation was added to the mixture, and the mixture was incubated in an incubator at 37° C. for 2 hours. After completion of the incubation, fluorescence intensity (FLU) was measured with a fluorescence plate reader (excitation wavelength: 465 nm, emission wavelength: 535 nm). In accordance with the following equation 1, the CETP activity (% of control) was obtained for the compounds of the examples and the comparative compounds for two or more concentrations. CETP activity (% of control)=(Sample FLU−Blank FLU)×100/(Control FLU−Blank FLU) (Equation 1) In the equation, the terms have the following meanings: Blank: No addition of plasma Control: Plasma not added with solution of compound Sample: Plasma added with solution of compound
A value obtained by subtracting the value of the CETP activity from 100 was defined as the CETP inhibitory rate of each exemplary compound and comparative compound, and a concentration inhibiting the CETP activity by 50% (IC50) was calculated for each exemplary compound and comparative compound from the values of the CETP inhibitory rate at two or more concentrations. As the comparative compounds, the following compounds were used, which are compounds having a benzyl(heterocyclylmethyl)amine structure described in Examples 52, 66 and 79 of Patent document 9 (International Patent Publication WO2006/073973).

For series [2], the system named is CETP. Briefly: CETP inhibitory activity in blood of hamster (single oral administration). Conditions: 30 mg/kg single oral dose in olive oil, blood collected 2 hours after administration, n=3, control 33.7 ± 2.3. The format is in vivo. On the procedure:
1: Labeling of Donor Lipoprotein (HDL3 Fraction) with ^3H-Cholesterol and Preparation of Acceptor Lipoprotein (LDL Fraction)
The donor lipoprotein was prepared by adding KBr to plasma of healthy human subject (50 mL) to adjust the specific gravity (d) of the plasma to be 1.125, centrifuging the mixture at 100,000 rpm and 4° C. for 2.5 hours (Optima Max-E TLA-100.2 rotor, Beckman), and collecting the lower layer (HDL3 fraction, d>1.125). The resulting fraction was dialyzed against PBS (10 mM Na2HPO4, 10 mM NaH2PO4, 0.15 M NaCl, 1 mM EDTA-2Na, pH 7.4). Then, a 95% ethanol solution of 9.25 MBq 1, 2-3H(N)cholesterol (NEN™, Life Science Products, USA) was added to the sample with stirring, and the mixture was incubated at 37° C. for 18 hours. After the incubation, the mixture was added with KBr to adjust the specific gravity thereof to be 1.210, and centrifuged under the same conditions as mentioned above to obtain the upper layer (^3H-labeled HDL3 fraction, 1.125<d<1.210). The ^3H-labeled HDL3 was dialyzed against PBS, and used for the measurement of the CETP activity.
The acceptor lipoprotein was prepared as follows. Plasma of healthy human subject (30 mL) was centrifuged under the same conditions as mentioned above, and the upper layer (chylomicron and VLDL fraction, d<1.006) was removed. The lower layer was added with KBr to adjust the specific gravity thereof to be 1.063, and centrifuged under the same conditions to obtain the upper layer (LDL fraction, 1.006<d<1.063). The LDL fraction was dialyzed against PBS and used for the measurement of the CETP activity.
Each of the compounds of Examples 10 and 13 and the comparative compounds was dissolved in olive oil and orally administered once to the animals, and blood was collected from the abdominal portion of vena cava under pentobarbital anesthetization 2 hours after the administration. Further, as a control, olive oil in which any compound was not dissolved was administered, and blood was collected in a similar manner (n=3 for each).
(§1) To 10 μL of the hamster plasma, 5 μL of ^3H-labeled HDL3 and 20 μL of LDL were added, and the final volume of the mixture was made […] with a TBS solution (10 mM Tris, 0.15 M NaCl, pH 7.4). The mixture was incubated at 37° C. for 18 hours, then added with 400 μL of the TBS solution containing 0.15 M MgCl2 and 0.3% dextran sulfate, stirred (10 sec×2) with VORTEX-2 (Scientific Industries Inc.), left for 30 minutes on ice, and centrifuged at 4° C. and 8,000 rpm for 10 minutes (MX-301, TOMY). The resulting centrifugation supernatant (^3H-labeled HDL3 fraction) in a volume of 300 μL was collected in a vial, and added with 3.6 mL of a scintillator (Aquazol-2, Packard), and the mixture was stirred. Then, radioactivity of ^3H was measured with a liquid scintillation counter (TRI-CARB 2700 TR, Packard). The CETP activity (%) was obtained in accordance with the following equation 2. CETP activity (%)=(Blank dpm−Sample dpm)×100/(Blank dpm) (Equation 2) In the equation, the terms have the following meanings: Blank dpm: Value of ^3H radioactivity of sample not added with plasma Sample dpm: Value of ^3H radioactivity of sample added with compound or control sample.

The test system of series [3] is CETP. In words: CETP inhibitory activity in blood of hamster (repetitive oral administration for 7 days). The format is in vivo. Conditions: 100 mg/kg orally once a day for 7 days, blood collected 2 hours after final administration, n=5, control 43.5 ± 6.4. On the procedure:
as §1, with “sample. […]” for “sample.”

The term melting point denotes the temperature, or range, at which the solid turns liquid. Take `CCN(CC1CCCC1)c1ccc(OC)nc1CN(Cc1cc(C(F)(F)F)cc(C(F)(F)F)c1)c1ncc(OCCS(C)(=O)=O)cn1` (as salt: hydrochloride) [Example 13, 2-[N-[3,5-bis(trifluoromethyl)benzyl]-N-[3-(N-cyclopentylmethyl-N-ethyl)amino-6-methoxypyridin-2-yl]methyl]amino-5-(2-methylsulfonylethoxy)pyrimidine]: the melting point is 67 to 71 °C. `CCN(CC1CCCC1)c1nc2ccccc2cc1CN(Cc1cc(C(F)(F)F)cc(C(F)(F)F)c1)c1nnn(C)n1` [Comparative Compound 1, reference compound]: the IC50 at CETP [1] worked out at 1 µM. The “Average CETP activity ± standard deviation (%)” value with CETP [2] turned out to be 22.9 ± 3.3%. The corresponding values for `CCN(CC1CCCC1)c1nc2ccccc2cc1CN(Cc1cc(C(F)(F)F)cc(C(F)(F)F)c1)c1ncccn1` [Comparative Compound 2, reference compound] are 20 µM and 30.3 ± 4.2%. Regarding `CCN(CC1CCCC1)c1nc(C)c(C)cc1CN(Cc1cc(C(F)(F)F)cc(C(F)(F)F)c1)c1nnn(C)n1` [Comparative Compound 3, reference compound], the IC50 at CETP [1] is 1.5 µM. Further, the “Average CETP activity ± standard deviation (%)” value in the series on CETP [2] was 15.0 ± 4.0%. As for `CCN(CC1CCCC1)c1ccc(OC)nc1CN(Cc1cc(C#N)cc(C(F)(F)F)c1)c1ncc(OCC[S+](C)[O-])cn1` (stereo not drawn) [Example 9, 2-[N-(3-cyano-5-trifluoromethylbenzyl)-N-[3-(N-cyclopentylmethyl-N-ethyl)amino-6-methoxypyridin-2-yl]methyl]amino-5-(2-methylsulfinylethoxy)pyrimidine], the IC50 at CETP [1] came out at 0.09 µM. Turning to `CCN(CC1CCCC1)c1ccc(OC)nc1CN(Cc1cc(C#N)cc(C(F)(F)F)c1)c1ncc(OCCS(C)(=O)=O)cn1` [Example 10, 2-[N-(3-cyano-5-trifluoromethylbenzyl)-N-[3-(N-cyclopentylmethyl-N-ethyl)amino-6-methoxypyridin-2-yl]methyl]amino-5-(2-methylsulfonylethoxy)pyrimidine], the melting point fell in the range of 97.2 to 98.2 °C. Also, the IC50 at CETP [1] came to 0.035 µM. Moreover, the “Average CETP activity ± standard deviation (%)” value with CETP [2] amounted to 2.6 ± 1.1%. For the same compound, in the series on CETP [3], the “Average CETP activity ± standard deviation (%)” value was 11.4 ± 6.0%. For the compound `CCN(CC1CCCC1)c1ccc(OC)nc1CN(Cc1cc(C(F)(F)F)cc(C(F)(F)F)c1)c1ncc(OCC[S+](C)[O-])cn1` (stereo not drawn) [Example 12, 2-[N-[3,5-bis(trifluoromethyl)benzyl]-N-[3-(N-cyclopentylmethyl-N-ethyl)amino-6-methoxypyridin-2-yl]methyl]amino-5-(2-methylsulfinylethoxy)pyrimidine], at CETP [1], the IC50 turned out to be 0.35 µM. `CCN(CC1CCCC1)c1ccc(OC)nc1CN(Cc1cc(C(F)(F)F)cc(C(F)(F)F)c1)c1ncc(OCCS(C)(=O)=O)cn1` [Example 13, 2-[N-[3,5-bis(trifluoromethyl)benzyl]-N-[3-(N-cyclopentylmethyl-N-ethyl)amino-6-methoxypyridin-2-yl]methyl]amino-5-(2-methylsulfonylethoxy)pyrimidine]: the IC50 at CETP [1] came out at 0.25 µM. The entries for the “Average CETP activity ± standard deviation (%)” value in the series on CETP [2] and in the series on CETP [3] were 8.5 ± 1.7% and 9.0 ± 1.7%, respectively. Turning to `CCN(CC1CCCC1)c1ccc(OC)nc1CN(Cc1cc(C#N)cc(C#N)c1)c1ncc(OCC[S+](C)[O-])cn1` (stereo not drawn) [Example 41, 2-[N-[3-(N-cyclopentylmethyl-N-ethyl)amino-6-methoxypyridin-2-yl]methyl-N-(3,5-dicyanobenzyl)]amino-5-(2-methylsulfinylethoxy)pyrimidine], the IC50 at CETP [1] came out at 0.5 µM. For `CCN(CC1CCCC1)c1ccc(OC)nc1CN(Cc1cc(C#N)cc(C#N)c1)c1ncc(OCCS(C)(=O)=O)cn1` [Example 42, 2-[N-[3-(N-cyclopentylmethyl-N-ethyl)amino-6-methoxypyridin-2-yl]methyl-N-(3,5-dicyanobenzyl)]amino-5-(2-methylsulfonylethoxy)pyrimidine], the IC50 at CETP [1] was 0.25 µM.
